Experimental data: ChEMBL document CHEMBL3392978 (Eur J Med Chem, 2015)

What was measured:
HepG2 [1] = assay: Growth inhibition of human HepG2 cells at 10 uM after 72 hrs by MTT assay; type: functional; settings: HepG2, 72 h, read-out: GI
MDA-MB-453 [2] = assay: Growth inhibition of human MDA-MB-453 cells at 10 uM after 72 hrs by MTT assay; type: functional; settings: MDA-MB-453, 72 h, read-out: GI
SW480 [3] = assay: Growth inhibition of human SW480 cells at 10 uM after 72 hrs by MTT assay; type: functional; settings: SW480, 72 h, read-out: GI
A-375 [4] = assay: Growth inhibition of human A375 cells at 10 uM after 72 hrs by MTT assay; type: functional; settings: A-375, 72 h, read-out: GI
NCI-H522 [5] = assay: Growth inhibition of human NCI-H522 cells at 10 uM after 72 hrs by MTT assay; type: functional; settings: NCI-H522, 72 h, read-out: GI
MCF7 = assay: Growth inhibition of human MCF7 cells at 10 uM after 72 hrs by MTT assay; type: functional; settings: MCF7, 72 h, read-out: GI
HepG2 [6] = assay: Cytotoxicity against human HepG2 cells assessed as reduction in cell viability after 72 hrs by MTT assay; type: functional, cell-based; settings: HepG2, 72 h
A-375 [7] = assay: Cytotoxicity against human A375 cells assessed as reduction in cell viability after 72 hrs by MTT assay; type: functional, cell-based; settings: A-375, 72 h
[8] = molecular target: Serine/threonine-protein kinase B-raf (Homo sapiens, UniProt P15056); assay: Inhibition of BRAF (unknown origin) incubated for 15 mins by fluorescence based assay
Chain of Serine/threonine-protein kinase B-raf (P15056 whole entry): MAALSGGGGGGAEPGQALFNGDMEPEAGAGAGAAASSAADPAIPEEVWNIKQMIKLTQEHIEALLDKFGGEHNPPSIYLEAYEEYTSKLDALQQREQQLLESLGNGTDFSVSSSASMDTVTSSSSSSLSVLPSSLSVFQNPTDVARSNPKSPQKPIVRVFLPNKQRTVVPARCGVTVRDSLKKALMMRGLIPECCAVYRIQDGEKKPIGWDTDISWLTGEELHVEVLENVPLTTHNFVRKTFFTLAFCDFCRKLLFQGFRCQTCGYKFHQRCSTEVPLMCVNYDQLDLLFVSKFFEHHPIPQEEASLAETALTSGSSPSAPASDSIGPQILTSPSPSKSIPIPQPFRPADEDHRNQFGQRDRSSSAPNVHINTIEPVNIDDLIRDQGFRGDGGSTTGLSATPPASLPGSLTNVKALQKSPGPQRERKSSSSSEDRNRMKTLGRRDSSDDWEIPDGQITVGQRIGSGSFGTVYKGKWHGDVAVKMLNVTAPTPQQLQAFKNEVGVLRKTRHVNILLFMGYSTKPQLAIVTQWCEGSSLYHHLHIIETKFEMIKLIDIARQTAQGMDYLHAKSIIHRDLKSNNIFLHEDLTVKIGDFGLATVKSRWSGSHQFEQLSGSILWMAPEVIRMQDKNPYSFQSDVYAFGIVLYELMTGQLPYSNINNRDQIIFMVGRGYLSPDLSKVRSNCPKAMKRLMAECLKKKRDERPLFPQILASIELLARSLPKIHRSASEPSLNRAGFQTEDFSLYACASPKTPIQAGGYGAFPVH

MDA-MB-453 [9] = assay: Cytotoxicity against human MDA-MB-453 cells assessed as reduction in cell viability after 72 hrs by MTT assay; type: functional, cell-based; settings: MDA-MB-453, 72 h
SW480 [10] = assay: Cytotoxicity against human SW480 cells assessed as reduction in cell viability after 72 hrs by MTT assay; type: functional, cell-based; settings: SW480, 72 h
NCI-H522 [11] = assay: Cytotoxicity against human NCI-H522 cells assessed as reduction in cell viability after 72 hrs by MTT assay; type: functional, cell-based; settings: NCI-H522, 72 h
A-375 [12] = assay: Antitumor activity against human A375 cells xenografted in nude Ncr mouse assessed as reduction in tumor growth at 50 mg/kg, ig dosed once daily for 23 days; type: functional; settings: A-375, po, 552 h, route intragastric, read-out: TGI

SMILES | inhibition of growth at 10 µM (HepG2 [1]) [%] | inhibition of growth at 10 µM (MDA-MB-453 [2]) [%] | inhibition of growth at 10 µM (SW480 [3]) [%] | inhibition of growth at 10 µM (A-375 [4]) [%] | inhibition of growth at 10 µM (NCI-H522 [5]) [%] | inhibition of growth at 10 µM (MCF7) [%] | IC50 (HepG2 [6]) [µM] | IC50 (A-375 [7]) [µM] | IC50 [8] [µM] | IC50 (MDA-MB-453 [9]) [µM] | IC50 (SW480 [10]) [µM] | IC50 (NCI-H522 [11]) [µM] | inhibition in vivo at 50 mg/kg (A-375 [12]) [%]
Cc1ccc(NC(=O)c2ccc(Cl)c(C(F)(F)F)c2)cc1C(=O)Nc1ccc(-c2ncc[nH]2)nc1 | 47.9 | 12.5 | 16.7 | 42.9 | -11.4 | 30.5 | 6.17 | 14.4 | – | – | – | – | –
Cc1cc(C(=O)Nc2ccc(C)c(C(=O)Nc3ccc(-c4ncc[nH]4)nc3)c2)ccc1Cl | 32 | 27.7 | 21.4 | 37.3 | 12.6 | 36.2 | – | – | – | – | – | – | –
Cc1ccc(NC(=O)c2ccc(C(F)(F)F)cc2)cc1C(=O)Nc1ccc(-c2ncc[nH]2)nc1 | 25.7 | 26 | 28.1 | 40.4 | 16.5 | 36.4 | – | – | – | – | – | – | –
Cc1ccc(C(=O)Nc2ccc(C)c(C(=O)Nc3ccc(-c4ncc[nH]4)nc3)c2)cc1 | 17.8 | 16.5 | 26.3 | 37.6 | 31.8 | 36.5 | – | – | – | – | – | – | –
Cc1ccc(NC(=O)c2cccc(F)c2)cc1C(=O)Nc1ccc(-c2ncc[nH]2)nc1 | 2.1 | 14.9 | 10.4 | 27.9 | 8.5 | 29.2 | – | – | – | – | – | – | –
Cc1ccc(NC(=O)c2ccc(Cl)c(Cl)c2)cc1C(=O)Nc1ccc(-c2ncc[nH]2)nc1 | 5.5 | 24.4 | 13.7 | 30.6 | 2 | 33 | – | – | – | – | – | – | –
COc1cccc(C(=O)Nc2ccc(C)c(C(=O)Nc3ccc(-c4ncc[nH]4)nc3)c2)c1 | -4.9 | 18 | 17.6 | 28.2 | 8.7 | 27.9 | – | – | 2.47 | – | – | – | –
Cc1ccc(NC(=O)c2ccc(F)cc2)cc1C(=O)Nc1ccc(-c2ncc[nH]2)nc1 | 25 | 22 | 10.1 | 24.9 | 6.3 | 28.8 | – | – | – | – | – | – | –
Cc1ccc(NC(=O)c2ccc(Cl)cc2)cc1C(=O)Nc1ccc(-c2ncc[nH]2)nc1 | 12.1 | 21.4 | 17.7 | 23.9 | 6.4 | 32.4 | – | – | – | – | – | – | –
Cc1ccc(NC(=O)c2cccc([N+](=O)[O-])c2)cc1C(=O)Nc1ccc(-c2ncc[nH]2)nc1 | 11.1 | 22.3 | 16.7 | 17.6 | 8.9 | 34.9 | – | – | – | – | – | – | –
COc1ccc(C(=O)Nc2ccc(C)c(C(=O)Nc3ccc(-c4ncc[nH]4)nc3)c2)cc1 | 18.7 | 23.5 | 26.5 | 18.7 | 27.1 | 36 | – | – | 40.4 | – | – | – | –
Cc1ccc(NC(=O)c2cccc(Br)c2)cc1C(=O)Nc1ccc(-c2ncc[nH]2)nc1 | 6.4 | 20.2 | 24.4 | 31.9 | 10.4 | 33.2 | – | – | – | – | – | – | –
Cc1ccc(NC(=O)c2ccc(Br)cc2)cc1C(=O)Nc1ccc(-c2ncc[nH]2)nc1 | 14.8 | 18.9 | 23.9 | 30.1 | 13.5 | 31.9 | – | – | – | – | – | – | –
O=C(Nc1ccc(Cl)c(C(=O)Nc2ccc(-c3ncc[nH]3)nc2)c1)c1cccc(C(F)(F)F)c1 | 39.5 | 46.1 | 26.9 | 44.5 | -27.4 | 39 | – | – | – | – | – | – | –
O=C(Nc1ccc(Cl)c(C(=O)Nc2ccc(-c3ncc[nH]3)nc2)c1)c1ccc(C(F)(F)F)cc1 | 44 | 48.4 | 15.1 | 47.6 | -22.9 | 35.3 | – | – | – | – | – | – | –
Cc1cccc(C(=O)Nc2ccc(Cl)c(C(=O)Nc3ccc(-c4ncc[nH]4)nc3)c2)c1 | 24.8 | 23.6 | 30.8 | 40.8 | 5.3 | 34 | – | – | – | – | – | – | –
Cc1ccc(C(=O)Nc2ccc(Cl)c(C(=O)Nc3ccc(-c4ncc[nH]4)nc3)c2)cc1 | -2.7 | 23.2 | 21.1 | 30.1 | 17.2 | 22.4 | – | – | – | – | – | – | –
O=C(Nc1ccc(Cl)c(C(=O)Nc2ccc(-c3ncc[nH]3)nc2)c1)c1cccc(F)c1 | -12.9 | 19 | 16.7 | 32.3 | 7.6 | 29.7 | – | – | – | – | – | – | –
O=C(Nc1ccc(Cl)c(C(=O)Nc2ccc(-c3ncc[nH]3)nc2)c1)c1cccc(Cl)c1 | 2.9 | 10.7 | 15.5 | 32.4 | -1.8 | 29.8 | – | – | – | – | – | – | –
O=C(Nc1ccc(Cl)c(C(=O)Nc2ccc(-c3ncc[nH]3)nc2)c1)c1ccc(Cl)c(Cl)c1 | 57 | 45.3 | 47.2 | 46.1 | -21.1 | 35.5 | 15.2 | 9.39 | – | 11.4 | 9.34 | – | –
COc1cccc(C(=O)Nc2ccc(Cl)c(C(=O)Nc3ccc(-c4ncc[nH]4)nc3)c2)c1 | 2.6 | 19.4 | 17.6 | 34.9 | -2.9 | 29.6 | – | – | – | – | – | – | –
O=C(Nc1ccc(Cl)c(C(=O)Nc2ccc(-c3ncc[nH]3)nc2)c1)c1ccc(F)cc1 | -1.3 | 21.5 | 14.9 | 30.1 | -8.8 | 33.4 | – | – | – | – | – | – | –
O=C(Nc1ccc(Cl)c(C(=O)Nc2ccc(-c3ncc[nH]3)nc2)c1)c1ccc(Cl)cc1 | 38.9 | 36.4 | 13.4 | 29.6 | -1.9 | 31.4 | – | – | – | – | – | – | –
O=C(Nc1ccc(Cl)c(C(=O)Nc2ccc(-c3ncc[nH]3)nc2)c1)c1ccc(Cl)c(Br)c1 | 35.5 | 15.1 | 12.4 | 38.4 | -15.4 | 29.1 | – | – | – | – | – | – | –
O=C(Nc1cccc(C(F)(F)F)c1)c1ccc(Cl)c(C(=O)Nc2ccc(-c3ncc[nH]3)nc2)c1 | 29.9 | 19.7 | 18.9 | 44.1 | -18 | 25.9 | – | – | – | – | – | – | –
O=C(Nc1ccc(Cl)cc1)c1ccc(Cl)c(C(=O)Nc2ccc(-c3ncc[nH]3)nc2)c1 | 18.9 | 16.5 | 12.7 | 21.9 | -20 | 19.4 | – | – | – | – | – | – | –
O=C(Nc1cccc(Cl)c1)c1ccc(Cl)c(C(=O)Nc2ccc(-c3ncc[nH]3)nc2)c1 | 19.4 | 11.6 | 5.8 | 26.1 | -16.2 | 26 | – | – | – | – | – | – | –
O=C(Nc1ccc(Cl)c(Cl)c1)c1ccc(Cl)c(C(=O)Nc2ccc(-c3ncc[nH]3)nc2)c1 | 57 | 36.3 | 13.4 | 28.4 | -28.6 | 25 | 3.97 | – | – | – | – | – | –
CNC(=O)c1cc(Oc2ccc(NC(=O)Nc3ccc(Cl)c(C(F)(F)F)c3)cc2)ccn1 [SORAFENIB] | 59.9 | 36.9 | 28.1 | 44.1 | 39.4 | 23 | 5.74 | 16.2 | – | – | – | 19.3 | 76.6
